Source: patent publication US8841633B2, “Method and apparatus for detecting pharmaceuticals in a sample” (priority 2009, dated 2014)
Where two headings read alike, the source gives them in different places.

Experiments:
[1] = mean of three ± SEM
Procedure: The values are given as mean values of three measurements±standard error of the mean.
(§1) In connection with the retrieval of the blood sample, the patients respective International Normalized Ratio (INR) were measured, which is a well known type of measure indicative of the coagulation of the blood.

[2] = time-resolved fluorescence of isolated warfarin in PBS; assay type: physicochemical; conditions: excitation 334 nm
coagulation of the blood = assay: International Normalized Ratio (INR) of patients treated with warfarin; assay type: in vivo, human
Procedure: as §1

[3] = blood sample of patient no. 1 treated with warfarin
[4] = blood sample of patient no. 2 treated with warfarin

Amplitude A1 [1, 3]: 69.4 ± 0.2% | Amplitude A2 [1, 3]: 21.0 ± 0.2% | Amplitude A3 [1, 3]: 9.6 ± 0.1% | Fluorescence lifetime τ1 [1, 3]: 0.10 ± 0.00 ns | Fluorescence lifetime τ2 [1, 3]: 1.50 ± 0.04 ns | Fluorescence lifetime τ3 [1, 3]: 4.05 ± 0.01 ns | Amplitude A1 [1, 4]: 96.0 ± 0.3% | Amplitude A3 [1, 4]: 4.0 ± 0.3% | Fluorescence lifetime τ1 [1, 4]: 0.06 ± 0.00 ns | Fluorescence lifetime τ3 [1, 4]: 2.77 ± 0.02 ns | excited state lifetime τ1 (unresolved) [2]: ≤ 100 ps
Structure (SMILES): CC(=O)CC(c1ccccc1)c1c(O)c2ccccc2oc1=O (stereo not shown) [Warfarin, warfarin]
INR value (coagulation of the blood; patient no. 1 treated with warfarin): 3.0 | INR value (coagulation of the blood; patient no. 2 treated with warfarin): 1.9
